Legend:
[1] = The drug is tested on Coprococcus comes strain: ATCC27758 for biotransformation. The drug concentrations were measured before and after a 12-h incubation by liquid-chromatography-coupled mass spectrometry (LC–MS); format: ADME; design: dose 2 uM, timepoint 0 vs 12 hours; settings: 2 µM
[2] = bacteroides intestinalis, 12 h, 2 µM
Description: The drug is tested on Bacteroides intestinalis strain: DSM17393 for biotransformation. The drug concentrations were measured before and after a 12-h incubation by liquid-chromatography-coupled mass spectrometry (LC–MS)

[3] = The drug is tested on Blautia luti strain: DSM14534 for biotransformation. The drug concentrations were measured before and after a 12-h incubation by liquid-chromatography-coupled mass spectrometry (LC–MS); format: ADME; design: dose 2 uM, timepoint 0 vs 12 hours; settings: 2 µM
[4] = segatella copri, 12 h, 2 µM
Description: The drug is tested on Prevotella copri strain: DSM18205 for biotransformation. The drug concentrations were measured before and after a 12-h incubation by liquid-chromatography-coupled mass spectrometry (LC–MS)

[5] = The drug is tested on Bacteroides fragilis strain: HMW610 for biotransformation. The drug concentrations were measured before and after a 12-h incubation by liquid-chromatography-coupled mass spectrometry (LC–MS); settings: 2 µM
[6] = The drug is tested on Eubacterium ventriosum strain: ATCC27560 for biotransformation. The drug concentrations were measured before and after a 12-h incubation by liquid-chromatography-coupled mass spectrometry (LC–MS); format: ADME; design: dose 2 uM, timepoint 0 vs 12 hours; settings: 2 µM
[7] = The drug is tested on Dorea formicigenerans strain: ATCC27755 for biotransformation. The drug concentrations were measured before and after a 12-h incubation by liquid-chromatography-coupled mass spectrometry (LC–MS); settings: 2 µM
[8] = The drug is tested on Anaerococcus hydrogenalis strain: DSM7454 for biotransformation. The drug concentrations were measured before and after a 12-h incubation by liquid-chromatography-coupled mass spectrometry (LC–MS); settings: 2 µM
[9] = limosilactobacillus reuteri cf48-3a, 12 h, 2 µM
Description: The drug is tested on Lactobacillus reuteri CF48-3A strain: BEI HM-102 for biotransformation. The drug concentrations were measured before and after a 12-h incubation by liquid-chromatography-coupled mass spectrometry (LC–MS)

[10] = The drug is tested on Clostridium asparagiforme strain: DSM15981 for biotransformation. The drug concentrations were measured before and after a 12-h incubation by liquid-chromatography-coupled mass spectrometry (LC–MS); format: ADME; design: dose 2 uM, timepoint 0 vs 12 hours; settings: enterocloster asparagiformis, 2 µM
[11] = The drug is tested on Collinsella intestinalis strain: DSM13280 for biotransformation. The drug concentrations were measured before and after a 12-h incubation by liquid-chromatography-coupled mass spectrometry (LC–MS); settings: 2 µM
[12] = roseburia intestinalis, 12 h, 2 µM
Description: The drug is tested on Roseburia intestinalis strain: L1-82 for biotransformation. The drug concentrations were measured before and after a 12-h incubation by liquid-chromatography-coupled mass spectrometry (LC–MS)

[13] = The drug is tested on Bacteroides finegoldii strain: DSM17565 for biotransformation. The drug concentrations were measured before and after a 12-h incubation by liquid-chromatography-coupled mass spectrometry (LC–MS); settings: 2 µM
[14] = The drug is tested on Bacteroides coprophilus strain: DSM18228 for biotransformation. The drug concentrations were measured before and after a 12-h incubation by liquid-chromatography-coupled mass spectrometry (LC–MS); settings: 2 µM
[15] = The drug is tested on Ruminococcus gnavus strain: ATCC29149 for biotransformation. The drug concentrations were measured before and after a 12-h incubation by liquid-chromatography-coupled mass spectrometry (LC–MS); settings: mediterraneibacter gnavus, 2 µM
[16] = akkermansia muciniphila, 12 h, 2 µM
Description: The drug is tested on Akkermansia muciniphila strain: ATCC BAA-835 for biotransformation. The drug concentrations were measured before and after a 12-h incubation by liquid-chromatography-coupled mass spectrometry (LC–MS)

[17] = The drug is tested on Subdoligranulum variabile strain: DSM15176 for biotransformation. The drug concentrations were measured before and after a 12-h incubation by liquid-chromatography-coupled mass spectrometry (LC–MS); settings: 2 µM
[18] = bacteroides thetaiotaomicron, 12 h, 2 µM
Description: The drug is tested on Bacteroides thetaiotaomicron strain: 7330 for biotransformation. The drug concentrations were measured before and after a 12-h incubation by liquid-chromatography-coupled mass spectrometry (LC–MS)

[19] = The drug is tested on Clostridium sporogenes strain: ATCC15579 for biotransformation. The drug concentrations were measured before and after a 12-h incubation by liquid-chromatography-coupled mass spectrometry (LC–MS); settings: 2 µM
[20] = bacteroides stercoris, 12 h, 2 µM
Description: The drug is tested on Bacteroides stercoris strain: ATCC43183 for biotransformation. The drug concentrations were measured before and after a 12-h incubation by liquid-chromatography-coupled mass spectrometry (LC–MS)

| Structure (SMILES) | Bacterial Biotransformation [1] | Bacterial Biotransformation [2] | Bacterial Biotransformation [3] | Bacterial Biotransformation [4] | Bacterial Biotransformation [5] | Bacterial Biotransformation [6] | Bacterial Biotransformation [7] | Bacterial Biotransformation [8] | Bacterial Biotransformation [9] | Bacterial Biotransformation [10] | Bacterial Biotransformation [11] | Bacterial Biotransformation [12] | Bacterial Biotransformation [13] | Bacterial Biotransformation [14] | Bacterial Biotransformation [15] | Bacterial Biotransformation [16] | Bacterial Biotransformation [17] | Bacterial Biotransformation [18] | Bacterial Biotransformation [19] | Bacterial Biotransformation [20] |
| --- | --- | --- | --- | --- | --- | --- | --- | --- | --- | --- | --- | --- | --- | --- | --- | --- | --- | --- | --- | --- |
| CN1CCC(=C2c3ccccc3CCc3cccnc32)CC1.O=C(O)/C=C\C(=O)O.O=C(O)/C=C\C(=O)O [AZATADINE MALEATE] | Compound NOT metabolized | Compound NOT metabolized | Compound NOT metabolized | Compound NOT metabolized | Compound NOT metabolized | Compound NOT metabolized | Compound NOT metabolized | Compound NOT metabolized | Compound NOT metabolized | Compound NOT metabolized | Compound NOT metabolized | Compound NOT metabolized | Compound NOT metabolized | Compound NOT metabolized | Compound NOT metabolized | Compound NOT metabolized | Compound NOT metabolized | Compound NOT metabolized | Compound NOT metabolized | Compound NOT metabolized |
| CN(C)C(=O)Oc1cc(OC(=O)N(C)C)cc(C(O)CNC(C)(C)C)c1 (stereo not given) [BAMBUTEROL] | Compound NOT metabolized | Compound NOT metabolized | Compound NOT metabolized | Compound NOT metabolized | Compound NOT metabolized | Compound NOT metabolized | Compound NOT metabolized | Compound NOT metabolized | Compound NOT metabolized | Compound NOT metabolized | Compound NOT metabolized | Compound NOT metabolized | Compound NOT metabolized | Compound NOT metabolized | Compound NOT metabolized | Compound NOT metabolized | Compound NOT metabolized | Compound NOT metabolized | Compound NOT metabolized | Compound NOT metabolized |
| CC(=O)Oc1ccc(C(c2ccc(OC(C)=O)cc2)c2ccccn2)cc1 [BISACODYL] | Compound metabolized | Compound metabolized | Compound metabolized | Compound metabolized | Compound metabolized | Compound metabolized | Compound metabolized | Compound metabolized | Compound metabolized | Compound metabolized | Compound metabolized | Compound metabolized | Compound metabolized | Compound metabolized | Compound metabolized | Compound metabolized | Compound metabolized | Compound metabolized | Compound metabolized | Compound metabolized |
| COc1ccccc1OCCNCC(O)COc1cccc2[nH]c3ccccc3c12 (stereo not given) [CARVEDILOL] | Compound NOT metabolized | Compound metabolized | Compound metabolized | Compound metabolized | Compound NOT metabolized | Compound metabolized | Compound NOT metabolized | Compound metabolized | Compound NOT metabolized | Compound metabolized | Compound NOT metabolized | Compound NOT metabolized | Compound metabolized | Compound metabolized | Compound NOT metabolized | Compound metabolized | Compound NOT metabolized | Compound metabolized | Compound metabolized | Compound metabolized |

From ChEMBL document CHEMBL5303573, “Mapping human microbiome drug metabolism by gut bacteria and their genes” (Nature, 2019)
